The record followed here is US20240116985A1, “STAPLED PEPTIDES AND METHODS THEREOF” (priority 2020, published 2024).

Data set [1] in a line: CHI Log D procedure. The class given is physicochemical. Particulars: for chromatographic logD: pH 7.4, CHI Log D; for CHI Log D: pH 7.4.
Data set [2] deals with T1, full-length B-Catenin (Uniprot ID P35222) (Homo sapiens, UniProt P35222).
T1 construct: 65 nM full-length B-Catenin (Uniprot ID P35222)
T1 sequence (P35222 1-781): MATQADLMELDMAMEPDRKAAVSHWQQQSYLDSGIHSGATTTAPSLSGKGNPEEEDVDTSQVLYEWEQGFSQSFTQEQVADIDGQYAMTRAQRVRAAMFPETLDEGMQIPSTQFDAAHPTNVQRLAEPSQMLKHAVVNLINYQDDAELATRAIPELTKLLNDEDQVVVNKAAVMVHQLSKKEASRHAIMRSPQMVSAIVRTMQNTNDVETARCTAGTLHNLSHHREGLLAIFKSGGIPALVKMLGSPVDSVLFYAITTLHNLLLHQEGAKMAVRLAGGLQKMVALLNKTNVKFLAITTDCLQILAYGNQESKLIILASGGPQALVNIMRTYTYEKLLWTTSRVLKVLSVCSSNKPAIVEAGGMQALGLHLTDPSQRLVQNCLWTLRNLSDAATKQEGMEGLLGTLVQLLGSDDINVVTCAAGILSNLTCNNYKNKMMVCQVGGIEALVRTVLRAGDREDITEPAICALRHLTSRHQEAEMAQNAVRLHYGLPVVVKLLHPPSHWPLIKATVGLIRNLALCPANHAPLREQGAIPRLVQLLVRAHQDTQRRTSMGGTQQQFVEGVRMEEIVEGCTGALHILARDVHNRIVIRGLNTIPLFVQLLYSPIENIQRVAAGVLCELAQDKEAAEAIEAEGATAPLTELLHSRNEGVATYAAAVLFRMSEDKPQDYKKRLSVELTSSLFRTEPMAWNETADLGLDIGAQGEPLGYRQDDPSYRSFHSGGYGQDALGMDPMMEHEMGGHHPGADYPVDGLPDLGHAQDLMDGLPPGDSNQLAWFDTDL
Description: Alphascreen binding assay (beta-catenin / biotin-TCF4 10-53). The gist of the method:
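Final concentrations: 65 nM full-length human β-catenin plus 10 nM biotin-TCF4(10-53) peptide, test peptide 3-fold from 10 uM to 5 nM, preincubated 15 min at 20 °C in Tris pH 8.0/250 mM NaCl buffer. Nickel-chelate AlphaScreen donor/acceptor beads then added for 60 min in the dark; duplicate reads fitted to 1:1 binding model with Hill slope.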

A word on the chromatographic logD: it is lipophilicity estimated from chromatographic retention. Low readings indicate lower lipophilicity, high ones higher lipophilicity. What is called EC50 is the concentration giving half of the maximal effect. Higher therefore signals a need for much substance. Compound `CC(=O)N1CCC[C@]12CC=CCCCC1(CCCC=CCCCCCC[C@@](C)(C(=O)N[C@@H](Cc3ccccc3)C(=O)N[C@@H](Cc3c[nH]c4ccccc34)C(=O)N[C@@H](CCC(N)=O)C(N)=O)NC(=O)[C@H](C(C)C)NC(=O)[C@H](Cc3ccccc3)NC(=O)[C@H](C)NC(=O)[C@H](C)NC(=O)[C@H](Cc3ccncc3)NC(=O)[C@H](CC(=O)O)NC1=O)NC(=O)[C@H](C)NC(=O)[C@H](CC(=O)O)NC2=O` (stereo partly drawn) [I-272, Ac-PL3-Asp-Ala-B5-Asp-4PyrA-Ala-Ala-Phe-Val-S8-Phe-Trp-Gln-NH2] returned a chromatographic logD in data set [1] of 2.46. Further, a half-maximal response in data set [2] (EC50) required 1010 nM.
In the case of `CC(=O)N1CCC[C@]12CC=CCCCC1(CCCC=CCCCCCC[C@@](C)(C(=O)N[C@@H](Cc3ccc4ccccc4c3)C(=O)N[C@@H](Cc3c[nH]c4ccccc34)C(=O)N[C@@H](CCC(N)=O)C(N)=O)NC(=O)[C@H](C(C)C)NC(=O)[C@H](Cc3ccccc3)NC(=O)[C@H](C)NC(=O)[C@H](C)NC(=O)[C@H](CC(=O)O)NC(=O)[C@H](CC(=O)O)NC1=O)NC(=O)[C@H](C)NC(=O)[C@H](CC(=O)O)NC2=O` (stereo partly drawn) [I-278, Ac-PL3-Asp-Ala-B5-Asp-Asp-Ala-Ala-Phe-Val-S8-2NapA-Trp-Gln-NH2], the “CHI Log D” value in data set [1] was found to be 2.209. This compound also displayed an EC50 in data set [2] of 2230 nM.
In the case of `CC(=O)N1CCC[C@]12CC=CCCCC1(CCCC=CCCCCCC[C@@](C)(C(=O)N[C@@H](Cc3ccccc3)C(=O)N[C@@H](Cc3c[nH]c4ccccc34)C(=O)N[C@@H](CCC(N)=O)C(N)=O)NC(=O)[C@H](C(C)C)NC(=O)[C@H](Cc3ccccc3)NC(=O)[C@H](C)NC(=O)[C@H](C)NC(=O)[C@H](CC(=O)O)NC(=O)[C@H](CC(=O)O)NC1=O)NC(=O)[C@H](C)NC(=O)[C@H](CCC(=O)O)NC2=O` (stereo partly drawn) [I-279, Ac-PL3-Glu-Ala-B5-Asp-Asp-Ala-Ala-Phe-Val-S8-Phe-Trp-Gln-NH2], the “CHI Log D” value in data set [1] is 1.973. This compound also showed an EC50 in data set [2] of 4960 nM.
On to `CC(=O)N1CCC[C@]12CC=CCCCC1(CCCC=CCCCCCC[C@@](C)(C(=O)N[C@@H](CC(=O)O)C(=O)N[C@@H](Cc3c[nH]c4ccccc34)C(=O)N[C@@H](CCC(N)=O)C(N)=O)NC(=O)[C@H](C(C)C)NC(=O)[C@H](Cc3ccccc3)NC(=O)[C@H](C)NC(=O)[C@H](C)NC(=O)[C@H](CC(=O)O)NC(=O)[C@H](CC(=O)O)NC1=O)NC(=O)[C@H](C)NC(=O)[C@H](CC(=O)O)NC2=O` (stereo partly drawn) [I-283, Ac-PL3-Asp-Ala-B5-Asp-Asp-Ala-Ala-Phe-Val-S8-Asp-Trp-Gln-NH2], for which, in data set [1], the chromatographic logD stood at 1.29. In data set [2], this compound returned an EC50 of 9540 nM.
Regarding `CC(=O)N1CCC[C@]12CC=CCCCC1(CCCC=CCCCCCC[C@@](C)(C(=O)N[C@@H](Cc3ccccc3)C(=O)N[C@@H](Cc3c[nH]c4ccccc34)C(N)=O)NC(=O)[C@H](C(C)C)NC(=O)[C@H](Cc3ccccc3)NC(=O)[C@H](C)NC(=O)[C@H](C)NC(=O)[C@H](CC(=O)O)NC(=O)[C@H](CC(=O)O)NC1=O)NC(=O)[C@H](C)NC(=O)[C@H](CC(=O)O)NC2=O` (stereo partly drawn) [I-289, Ac-PL3-Asp-Ala-B5-Asp-Asp-Ala-Ala-Phe-Val-S8-Phe-Trp-NH2], in data set [1], the “CHI Log D” value was determined as 2.242. In data set [2], this compound came in with an EC50 of 626 nM.
Take `CC(=O)N1CCC[C@]12CC=CCCCC1(CCCC=CCCCCCC[C@@](C)(C(=O)N[C@@H](Cc3ccccc3)C(=O)N[C@@H](Cc3csc4ccccc34)C(=O)N[C@@H](C)C(N)=O)NC(=O)[C@H](CCC(N)=O)NC(=O)[C@H](Cc3ccccc3)NC(=O)[C@H](C)NC(=O)[C@H](C)NC(=O)[C@H](Cc3ccc4ccccc4c3)NC(=O)[C@H](CC(=O)O)NC1=O)NC(=O)[C@H](C)NC(=O)[C@H](CC(=O)O)NC2=O` (stereo partly drawn) [I-296, Ac-PL3-Asp-Ala-B5-Asp-2NapA-Ala-Ala-Phe-Gln-S8-Phe-BztA-Ala-NH2]: the chromatographic logD in data set [1] stood at 2.94. The same compound displayed an EC50 in data set [2] of 1910 nM.
On the same counts, the results for `CC(=O)N1CCC[C@]12CC=CCCCC1(CCCC=CCCCCCC[C@@](C)(C(=O)N[C@@H](Cc3ccccc3)C(=O)N[C@@H](Cc3csc4ccccc34)C(=O)N[C@@H](CCC(N)=O)C(N)=O)NC(=O)[C@H](C(C)C)NC(=O)[C@H](Cc3ccccc3)NC(=O)[C@H](C)NC(=O)[C@H](C)NC(=O)[C@H](Cc3ccc4ccccc4c3)NC(=O)[C@H](CC(=O)O)NC1=O)NC(=O)[C@H](C)NC(=O)[C@H](CC(=O)O)NC2=O` (stereo partly drawn) [I-297, Ac-PL3-Asp-Ala-B5-Asp-2NapA-Ala-Ala-Phe-Val-S8-Phe-BztA-Gln-NH2] are 3.29 and 5810 nM.
`CC(=O)N1CCC[C@]12CC=CCCCC1(CCCC=CCCCCCC[C@@](C)(C(=O)N[C@@H](Cc3ccccc3)C(=O)N[C@@H](Cc3csc4ccccc34)C(=O)N[C@@H](CCC(N)=O)C(N)=O)NC(=O)[C@H](CO)NC(=O)[C@H](Cc3ccccc3)NC(=O)[C@H](C)NC(=O)[C@H](C)NC(=O)[C@H](Cc3ccc4ccccc4c3)NC(=O)[C@H](CC(=O)O)NC1=O)NC(=O)[C@H](C)NC(=O)[C@H](CC(=O)O)NC2=O` (stereo partly drawn) [I-298, Ac-PL3-Asp-Ala-B5-Asp-2NapA-Ala-Ala-Phe-Ser-S8-Phe-BztA-Gln-NH2] displayed a chromatographic logD in data set [1] of 2.78. For the same compound, a half-maximal response in data set [2] (EC50) required 3860 nM.
Regarding `CC(=O)N1CCC[C@]12CC=CCCCC1(CCCC=CCCCCCC[C@@](C)(C(=O)N[C@@H](Cc3cccc(Cl)c3)C(=O)N[C@@H](Cc3c[nH]c4ccccc34)C(=O)N[C@@H](CCC(N)=O)C(N)=O)NC(=O)[C@H](C(C)C)NC(=O)[C@H](Cc3ccccc3)NC(=O)[C@H](C)NC(=O)[C@H](C)NC(=O)[C@H](CC(=O)O)NC(=O)[C@H](CC(=O)O)NC1=O)NC(=O)[C@H](C)NC(=O)[C@H](CC(=O)O)NC2=O` (stereo partly drawn) [I-310, Ac-PL3-Asp-Ala-B5-Asp-Asp-Ala-Ala-Phe-Val-S8-3C1F-Trp-Gln-NH2], the “CHI Log D” value in data set [1] was 2.188. In addition, a half-maximal response in data set [2] (EC50) required 3240 nM.
On the same counts, the results for `CC(=O)N1CCC[C@]12CC=CCCCC1(CCCC=CCCCCCC[C@@](C)(C(=O)N[C@@H](Cc3cccc(Cl)c3)C(=O)N[C@@H](Cc3c[nH]c4ccccc34)C(=O)N[C@@H](CCC(N)=O)C(N)=O)NC(=O)[C@H](C(C)C)NC(=O)[C@H](Cc3ccccc3)NC(=O)[C@H](C)NC(=O)[C@H](C)NC(=O)[C@H](CC(=O)O)NC(=O)[C@H](CC(=O)O)NC1=O)NC(=O)[C@H](C)NC(=O)[C@H](CC(=O)O)NC2=O` (stereo partly drawn) [I-311, Ac-PL3-Asp-Ala-B5-Asp-Asp-Ala-Ala-Phe-Val-S8-3C1F-Trp-Gln-NH2] are 2.226 and 1240 nM.
On the same counts, the results for `CC(=O)N1CCC[C@]12CC=CCCCC1(CCCC=CCCCCCC[C@@](C)(C(=O)N[C@@H](Cc3ccc(Cl)cc3)C(=O)N[C@@H](Cc3c[nH]c4ccccc34)C(=O)N[C@@H](CCC(N)=O)C(N)=O)NC(=O)[C@H](C(C)C)NC(=O)[C@H](Cc3ccccc3)NC(=O)[C@H](C)NC(=O)[C@H](C)NC(=O)[C@H](CC(=O)O)NC(=O)[C@H](CC(=O)O)NC1=O)NC(=O)[C@H](C)NC(=O)[C@H](CC(=O)O)NC2=O` (stereo partly drawn) [I-313, Ac-PL3-Asp-Ala-B5-Asp-Asp-Ala-Ala-Phe-Val-S8-4C1F-Trp-Gln-NH2] are 2.159 and 3600 nM.
With `CC(=O)N1CCC[C@]12CC=CCCCC1(CCCC=CCCCCCC[C@@](C)(C(=O)N[C@@H](Cc3ccccc3)C(=O)N[C@@H](Cc3c[nH]c4ccccc34)C(=O)N[C@@H](CCC(N)=O)C(N)=O)NC(=O)[C@H](C(C)C)NC(=O)[C@H](Cc3ccccc3)NC(=O)[C@H](C)NC(=O)[C@H](C)NC(=O)[C@H](CCC(=O)O)NC(=O)[C@H](CC(=O)O)NC1=O)NC(=O)[C@H](C)NC(=O)[C@H](Cc1c[nH]cn1)NC2=O` (stereo partly drawn) [I-315, Ac-PL3-His-Ala-B5-Asp-Glu-Ala-Ala-Phe-Val-S8-Phe-Trp-Gln-NH2], the “CHI Log D” value in data set [1] is 2.359. Moreover, the EC50 in data set [2] amounted to 9900 nM.
On the same counts, the results for `CC(=O)N1CCC[C@]12CC=CCCCC1(CCCC=CCCCCCC[C@@](C)(C(=O)N[C@@H](Cc3ccccc3)C(=O)N[C@@H](Cc3c[nH]c4ccccc34)C(=O)N[C@@H](CCC(N)=O)C(N)=O)NC(=O)[C@H](C(C)C)NC(=O)[C@H](Cc3c[nH]cn3)NC(=O)[C@H](C)NC(=O)[C@H](C)NC(=O)[C@H](CC(=O)O)NC(=O)[C@H](CC(=O)O)NC1=O)NC(=O)[C@H](C)NC(=O)[C@H](CC(=O)O)NC2=O` (stereo partly drawn) [I-321, Ac-PL3-Asp-Ala-B5-Asp-Asp-Ala-Ala-His-Val-S8-Phe-Trp-Gln-NH2] are 2.073 and 2240 nM.
Take `CC(=O)N1CCC[C@]12CC=CCCCC1(CCCC=CCCCCCC[C@@](C)(C(=O)N[C@@H](Cc3ccccc3)C(=O)N[C@@H](Cc3c[nH]c4ccccc34)C(=O)N[C@@H](CCC(N)=O)C(N)=O)NC(=O)[C@H](C(C)C)NC(=O)[C@H](Cc3ccc(N)cc3)NC(=O)[C@H](C)NC(=O)[C@H](C)NC(=O)[C@H](CC(=O)O)NC(=O)[C@H](CC(=O)O)NC1=O)NC(=O)[C@H](C)NC(=O)[C@H](CC(=O)O)NC2=O` (stereo partly drawn) [I-322, Ac-PL3-Asp-Ala-B5-Asp-Asp-Ala-Ala-4AmPhe-Val-S8-Phe-Trp-Gln-NH2]: in data set [1], the “CHI Log D” value amounted to 1.933. Further, in data set [2], the EC50 worked out at 355 nM.
